Test results: US20090197899A1, “3-(Dihydro-1H-pyrazolo[4,3-d]pyrimidin-5-yl)-4-propoxybenzenesulfonamide Derivatives and Methods of Use” (Concert Pharmaceuticals Inc., priority 2006, published 2009)

Test: Metabolic stability of test compounds using human liver microsomes
Type: in vitro ADME
Conditions: for differentiation of t1/2 (longer) as compared to udenafil: human liver microsomes, assay conditions 0.5 mg/mL, 1 µM test compd; for half-life at 1 µM: pooled human liver microsomes, in vitro t1/2, 0.5 mg/mL human liver microsomes, 1 μM test compound, 2 mM NADPH, pH 7.4, 37° C., experiment run an additional three times, read-out: Avg t1/2 (min) ± SD
Protocol: Determination of Metabolic Stability of Test Compounds using Human Liver Microsomes. The metabolic stability of compounds of the invention was tested using pooled liver microsomal incubations. Full scan LC-MS analysis was then performed to detect major metabolites. Samples of the test compounds, exposed to pooled human liver microsomes, were analyzed using HPLC-MS (or MS/MS) detection. For determining metabolic stability, multiple reaction monitoring (MRM) was used to measure the disappearance of the test compounds. For metabolite detection, Q1 full scans were used as survey scans to detect the major metabolites.
Experimental Procedures. Human liver microsomes (“HLM”; 20 mg/mL) were obtained from Xenotech, LLC (Lenexa, Kans.). β-nicotinamide adenine dinucleotide phosphate, reduced form (NADPH), magnesium chloride (MgCl2), and dimethyl sulfoxide (DMSO) were purchased from Sigma-Aldrich.
Stock solutions (7.5 mM) of Compounds 100, 103, 108 and 210 and udenafil were prepared in DMSO. The 7.5 mM stock solutions were diluted to 50 μM in acetonitrile (ACN). The 20 mg/mL human liver microsomes were diluted to 0.625 mg/mL in 0.1 M potassium phosphate buffer, pH 7.4, containing 3 mM MgCl2. The diluted microsomes (375 μL) were added to wells of a 96-well deep-well polypropylene plate in triplicate. Ten μL of the 50 μM test compound solution was added to the microsomes and the mixture was pre-warmed for 10 minutes. Reactions were initiated by addition of 125 μL of pre-warmed NADPH solution (8 mM NADPH in 0.1M potassium phosphate buffer, pH 7.4, containing 3 mM MgCl2). […] The reaction mixtures were incubated at 37° C., and 50 μL aliquots were removed at 0, 5, 10, 20, and 30 minutes and added to shallow-well 96-well plates which contained […] of ice-cold ACN with internal standard to stop the reactions. The plates were stored at 4° C. for 20 minutes after which […] of water was added to the wells of the plate before centrifugation to pellet precipitated proteins. Supernatants were transferred to another 96-well plate and analyzed for amounts of parent remaining by LC-MS/MS using an Applied Bio-systems API 4000 mass spectrometer.
The in vitro t1/2s for test compounds were calculated from the slopes of the linear regression of % parent remaining (ln) vs incubation time relationship using the following formula:
in vitro t1/2=0.693/k, where k=−[slope of linear regression of % parent remaining(ln) vs incubation time]. Data analysis was performed using Microsoft Excel Software.

| SMILES | differentiation of t1/2 (longer) as compared to udenafil [%] | half-life at 1 µM [min] |
| --- | --- | --- |
| [2H]C([2H])(CC1CCCN1C)NS(=O)(=O)c1ccc(OCCC)c(-c2nc3c(CCC)nn(C([2H])([2H])[2H])c3c(=O)[nH]2)c1 (stereo not shown) [Compound 100] | ~20 | 41.3 ± 1.5 |
| [2H]C([2H])(CC1CCCN1C)NS(=O)(=O)c1ccc(OCCC)c(-c2nc3c(CCC)nn(C)c3c(=O)[nH]2)c1 (stereo not shown) [Compound 103] | – | 37.2 ± 1.8 |
| [2H]C([2H])([2H])n1nc(CCC)c2nc(-c3cc(S(=O)(=O)NCCC4CCCN4C)ccc3OCCC)[nH]c(=O)c21 (stereo not shown) [Compound 108] | – | 36.2 ± 1.5 |
| [2H]C([2H])(CC1CCCN1C)NS(=O)(=O)c1ccc(OC([2H])([2H])C([2H])([2H])C([2H])([2H])[2H])c(-c2nc3c(CC([2H])([2H])C([2H])([2H])[2H])nn(C([2H])([2H])[2H])c3c(=O)[nH]2)c1 (stereo not shown) [Compound 210, 3-(1-(Methyl-d3)-7-oxo-3-(2,2,3,3,3-d5-propyl)-6,7-dihydro-1H-pyrazolo[4,3-d]pyrimidin-5-yl)-N-(2-(1-methylpyrrolidin-2-yl)-1,1-d2-ethyl)-4-(propoxy-d7)-benzenesulfonamide] | ~20 | 42.4 ± 3.74 |
| CCCOc1ccc(S(=O)(=O)NCCC2CCCN2C)cc1-c1nc2c(CCC)nn(C)c2c(=O)[nH]1 (stereo not shown) [Udenafil, 3-(1-methyl-7-oxo-3-propyl-6,7-dihydro-1H-pyrazolo[4,3-d]pyrimidin-5-yl)-N-[2-(1-methylpyrrolidin-2-yl)ethyl]-4-propoxybenzenesulfonamide, reference compound] | – | 33.6 ± 2.2 |
